# From ChEMBL document CHEMBL4184116, “New butenolide derivatives from the marine sponge-derived fungus Aspergillus terreus” (Bioorg Med Chem Lett, 2018)
# Experiments:
# [1] = biological target: Alpha glucosidase (Homo sapiens, UniProt O43451+P10253+P14410+Q2M2H8); test: Inhibition of alpha-glucosidase (unknown origin) using p-nitro-phenyl-alpha-D-glucopyranoside as substrate preincubated for 5 mins with substrate followed by enzyme addition measure after 15 mins by spectrophotometric method; assay type: protein assay
# [2] = Antioxidant activity assessed as DPPH radical scavenging activity incubated for 30 mins under dark condition by spectrophotometric analysis; assay type: functional
# [3] = Antioxidant activity assessed as DPPH radical scavenging activity incubated for 30 mins under dark condition; assay type: functional
IC50 [1] [µM],IC50 [2] [µM],IC50 [3] [µM],Structure (SMILES)
85.13,86,–,COC(=O)[C@]1(Cc2ccc(O)cc2)OC(=O)C(O)=C1c1ccc(O)cc1
47.33,97,–,COC(=O)[C@]1(Cc2ccc3c(c2)CCC(C)(C)O3)OC(=O)C(O)=C1c1ccc(O)cc1
10.3,> 200,–,COC(=O)[C@@]1(O)OC(=O)C(Cc2ccc3c(c2)CCC(C)(C)O3)=C1c1ccc(O)cc1
7.63,> 200,–,CC1(C)CCc2cc(CC3=C(c4ccc(O)cc4)[C@@](O)(C(=O)O)OC3=O)ccc2O1
11.65,90,–,CC1(C)CCc2cc(CC3OC(=O)C(O)=C3c3ccc(O)cc3)ccc2O1 (configuration not stated)
9.98,> 200,–,CO[C@@H]1OC(=O)C(Cc2ccc(O)c(CC=C(C)C)c2)=C1c1ccc(O)cc1
–,–,125,COC(=O)[C@]1(Cc2ccc(O)c(CC=C(C)C)c2)OC(=O)C(OC)=C1c1ccc(O)cc1
–,–,> 500,COC(=O)[C@]1(Cc2ccc3c(c2)C[C@H](O)C(C)(C)O3)OC(=O)C(OC)=C1c1ccc(O)cc1
110.27,135,–,COC(=O)[C@]1(Cc2ccc3c(c2)C[C@@H](O)C(C)(C)O3)OC(=O)C(O)=C1c1ccc(O)cc1
13.36,> 200,–,CC1(C)CCc2cc(CC3=C(c4ccc(O)cc4)C(O)OC3=O)ccc2O1 (configuration not stated)
8.65,> 200,–,CO[C@H]1OC(=O)C(Cc2ccc(O)c(CC=C(C)C)c2)=C1c1ccc(O)cc1
14.18,38,–,COC(=O)[C@]1(Cc2ccc(O)c(CC=C(C)C)c2)OC(=O)C(O)=C1c1ccc(O)cc1
–,85,–,CC(=O)N[C@@H](CS)C(=O)O [ACETYLCYSTEINE]
> 400,106,–,O=C1O/C(=C\c2ccc(O)cc2)C(O)=C1c1ccc(O)cc1 [ASPULVINONE E]
> 400,129,–,COC(=O)[C@]1(Cc2ccc3c(c2)C[C@H](C(C)(C)O)O3)OC(=O)C(O)=C1c1ccc(O)cc1 [BUTYROLACTONE IV]
